Source: US20130071357A1, “IDENTIFICATION, PROLIFERATION IN SITU, HARVESTING, SEPARATION, AND TRANSPLANTATION OF ADULT-DERIVED REGENERATIVE PLURIPOTENT TRANSITIONAL BLASTOMERE-LIKE STEM CELLS AND METHODS OF TREATMENT THEREOF” (HEYGEN, LLC, priority 2011, published 2013)
Converted amounts (≈) assume the structure as drawn.

Assays:
[1] = system: adult-derived regenerative pluripotent transitional blastomere-like stem cells; assay: differentiation of Tr-BLSCs after exposure to dexamethasone; type: cell-based; settings: extended exposure to a range of dexamethasone concentrations
Description: After extended exposure to a range of dexamethasone concentrations, adult-derived regenerative pluripotent transitional blastomere-like stem cells differentiated into more than 50 discrete cell types.

[2] = solubility of dexamethasone; type: physicochemical
Procedure: Dexamethasone solution, pH 7.4: This is typically made up in absolute ethanol (EtOH) because it is not soluble in water or media. Weigh out 0.039 gm of Dexamethasone (Dex, catalog #D-1756, Sigma) and add to 10 ml of absolute EtOH. This will make a 1×10^−2 M stock solution. Store this solution at −20° C. This is the most concentrated solution of Dex that can be made with complete solubility. Add 1 ml of the stock Dex solution made above to 9-ml Opti-MEM I medium with Glutamax. Aliquot 9 ml of this solution as 500 μl quantities in 2 ml cryovials and store at −20° C. Label these tubes as […]. Take the remaining 1 ml of 10^−6M Dex and add to 9 ml of Opti-MEM I medium with Glutamax. Aliquot 9 mls and reserve 1 ml as before. Label these tubes as 1×10^−7M Dex. Take the remaining 1 ml of 10^−7M Dex and add to 9 ml of Opti-MEM I medium with Glutamax. Aliquot 9 mls and reserve 1 ml as before. Label these tubes as 1×10^−8M Dex. Take the remaining 1 ml of 10^−8M Dex and add to 9 ml of Opti-MEM I medium with Glutamax. Aliquot 9 mls and reserve 1 ml as before. Label these tubes as 1×10^−9M Dex. Take the remaining 1 ml of 10^−9M Dex and add to 9 ml of Opti-MEM I medium with Glutamax. Aliquot all 10 mls. Label these tubes as 1×10^−10M Dex. These aliquots will bring 500 mls of media to the concentration of Dex labeled on the tube. Store the cryovials at −20° C.

[3] = system: adult totipotent blastomeric-like stem cells; assay: induction of blastomeric-like stem cells in culture; type: cell-based, rat; settings: for response to progression agents: lineage-uncommitted BLSCs
Description: 1961; Rohme 1981; Young and Black, 2005a].
FIG. 7. Blastomeric-like stem cells (BLSCs) harvested from male Sprague-Dawley out bred rat 0001 and propagated from a single cell derived by serial dilution clonogenic analysis, then genomically labeled with LacZ to synthesize the beta-galactosidase gene product. Clone designated as Scl-44beta. […] B-L is phase contrast microscopy to show unstained cells in field of view. […] Original magnification 200×.
FIG. 8. Blastomeric-like stem cells (BLSCs) harvested from male Sprague-Dawley out bred rat 0001 and propagated from a single cell derived by serial dilution clonogenic analysis, then genomically labeled with LacZ to synthesize the beta-galactosidase gene product. Clone designated as Scl-44beta.

[4] = system: adult pluripotent epiblast-like stem cells; assay: induction of epiblast-like stem cells in culture; type: cell-based, rat; settings: for response to progression agents: lineage-uncommitted ELSCs

Row | Compound | response to progression agents [3] | response to progression agents [4] | also measured
1 | C[C@@H]1C[C@H]2[C@@H]3CCC4=CC(=O)C=C[C@]4(C)[C@@]3(F)[C@@H](O)C[C@]2(C)[C@@]1(O)C(=O)CO [dexamethasone, Dexamethasone] | – | – | discrete cell types formed [1]: more than 50 discrete cell types; solubility in water or media [2]: not soluble; solubility ([2]; absolute ethanol, organic solvent or mixture, thermodynamic from solid, absolute EtOH, read-out: most concentrated solution with complete solubility): 10 mM (≈ 3920 µg/mL)
2 | IGF-I: progression agent | unresponsive | unresponsive | –
3 | IGF-II: progression agent | unresponsive | unresponsive | –
4 | hepatocyte growth factor: lineage-induction agent | – | – | response to lineage-induction agent ([3]; BLSCs): forming cells belonging to the endodermal lineage; response to lineage-induction agent ([4]; ELSCs): forming cells belonging to the endodermal lineage
5 | insulin: progression agent | unresponsive | unresponsive | induction in the presence of insulin ([3]; clone Scl-44beta, insulin at 2 micrograms per ml, absence of inhibitors): no induction occurs
